Like-named read-outs stand apart in the source and are kept apart here.
Columns and labels:
PI3K δ = PI3K δ (Homo sapiens, UniProt O00329); assay: PI 3-Kinase HTRF inhibition assay, PI3K δ; format: biochemical; details: in vitro
Description: (§1) Commercial kits or systems for assaying PI3-K activities are available. The commercially available kits or systems can be used to screen for inhibitors and/or agonists of PI3-Ks including but not limited to PI 3-Kinase α, β, δ, and γ. Anr exemplary system is PI 3-Kinase (human) HTRF™ Assay from Upstate. […] Briefly, the assay is a time resolved FRET assay that indirectly measures PIP3 product formed by the activity of a PI3-K. The kinase reaction is performed in a microtitre plate (e.g., a 384 well microtitre plate). The total reaction volume is approximately 20 ul per well. In the first step, each well receives 2 ul of test compound in 20% dimethylsulphoxide resulting in a 2% DMSO final concentration. Next, approximately 14.5 ul of a kinase/PIP2 mixture (diluted in 1× reaction buffer) is added per well for a final concentration of 0.25-0.3 ug/ml kinase and 10 μM PIP2. The plate is sealed and incubated for 15 minutes at room temperature. To start the reaction, 3.5 ul of ATP (diluted in 1× reaction buffer) is added per well for a final concentration of 10 μM ATP. The plate is sealed and incubated for 1 hour at room temperature. The reaction is stopped by adding 5 ul of Stop Solution per well and then 5 ul of Detection Mix is added per well. The plate is sealed, incubated for 1 hour at room temperature, and then read on an appropriate plate reader. Data is analyzed and IC50s are generated using GraphPad Prism 5. For PI3K α, β, δ, and γ, the nM conentration of inhibitor to reach IC50 is provided. […] Similar assays, and others known in the art, can be used to measure the percent inhibition of other kinases, including but not limited to PI3K class II kinases, phosphoinositide 4 kinases (PI4K), and phosphoinositide 5 kinases (PI5K).

PI3K β = PI3K β (Homo sapiens, UniProt P42338); assay: PI 3-Kinase HTRF inhibition assay, PI3K β; format: biochemical
Description: as §1

PI3K γ = PI3K γ (Homo sapiens, UniProt P48736); assay: PI 3-Kinase HTRF inhibition assay, PI3K γ; format: biochemical; details: in vitro
PI3K α = PI3K α (Homo sapiens, UniProt P42336); assay: PI 3-Kinase HTRF inhibition assay, PI3K α; format: biochemical; details: in vitro
Description: as §1

MDA-MB-361 = MDA-MB-361 proliferation; format: cell-based; details: Homo sapiens; in vitro IC50, MDA-MB-361 cells
Description: The ability of one or more subject compounds to inhibit tumor cell line proliferation is determined according to standard procedures known in the art. For instance, an in vitro cellular proliferation assay can be performed to measure the metabolic activity of live cells. The assay is performed in a 96 well microtiter plate using Alamar Blue reduction. Human tumor cell lines are obtained from ATCC (e.g., MCF7, U-87 MG, MDA-MB-468, PC-3), grown to confluency in T75 flasks, trypsinized with 0.25% trypsin, washed one time with Tumor Cell Media (DMEM+10% FBS), and plated in 90 ul at 5,000 cells/well in Tumor Cell Media. A compound disclosed herein is diluted in Tumor Cell Media and added in a 10 ul volume. Plates are incubated for 72 hours at 37 C and 5% CO2. A volume of 10 uL of Alamar Blue reagent is added to each well and plates are incubated for 3 hours at 37 C and 5% CO2. Alamar Blue fluoresce is read at 560 Ex/590 Em, and IC50 values are calculated using GraphPad Prism 5.
Cells comprising one or more mutations in PI3Kα, including but not limited to breast cancer cells (e.g., MDA-MB-361 and T47D), and cells comprising one or more mutations in PTEN including but not limited to prostate cancer cells (e.g., PC3), are typically grown in cell growth media such as DMEM supplemented with fetal bovine serum and/or antibiotics, and grown to confluency. Cells are then treated with various concentrations of test compound for about 2 hours and subsequently lysed in cell lysis buffer. Lysates are subjected to SDS-PAGE followed by Western blot analysis to detect downstream signaling markers, including but not limited to pAKT(S473), pAKT(T308), pS6, and p4E-BP1. Degree of proliferation (and proliferation inhibition) can also be measured for cells at various doses of compound of the present invention.

[1] = in vitro, read-out: PI3K β IC50

PI3K γ, sequence (P48736 whole entry): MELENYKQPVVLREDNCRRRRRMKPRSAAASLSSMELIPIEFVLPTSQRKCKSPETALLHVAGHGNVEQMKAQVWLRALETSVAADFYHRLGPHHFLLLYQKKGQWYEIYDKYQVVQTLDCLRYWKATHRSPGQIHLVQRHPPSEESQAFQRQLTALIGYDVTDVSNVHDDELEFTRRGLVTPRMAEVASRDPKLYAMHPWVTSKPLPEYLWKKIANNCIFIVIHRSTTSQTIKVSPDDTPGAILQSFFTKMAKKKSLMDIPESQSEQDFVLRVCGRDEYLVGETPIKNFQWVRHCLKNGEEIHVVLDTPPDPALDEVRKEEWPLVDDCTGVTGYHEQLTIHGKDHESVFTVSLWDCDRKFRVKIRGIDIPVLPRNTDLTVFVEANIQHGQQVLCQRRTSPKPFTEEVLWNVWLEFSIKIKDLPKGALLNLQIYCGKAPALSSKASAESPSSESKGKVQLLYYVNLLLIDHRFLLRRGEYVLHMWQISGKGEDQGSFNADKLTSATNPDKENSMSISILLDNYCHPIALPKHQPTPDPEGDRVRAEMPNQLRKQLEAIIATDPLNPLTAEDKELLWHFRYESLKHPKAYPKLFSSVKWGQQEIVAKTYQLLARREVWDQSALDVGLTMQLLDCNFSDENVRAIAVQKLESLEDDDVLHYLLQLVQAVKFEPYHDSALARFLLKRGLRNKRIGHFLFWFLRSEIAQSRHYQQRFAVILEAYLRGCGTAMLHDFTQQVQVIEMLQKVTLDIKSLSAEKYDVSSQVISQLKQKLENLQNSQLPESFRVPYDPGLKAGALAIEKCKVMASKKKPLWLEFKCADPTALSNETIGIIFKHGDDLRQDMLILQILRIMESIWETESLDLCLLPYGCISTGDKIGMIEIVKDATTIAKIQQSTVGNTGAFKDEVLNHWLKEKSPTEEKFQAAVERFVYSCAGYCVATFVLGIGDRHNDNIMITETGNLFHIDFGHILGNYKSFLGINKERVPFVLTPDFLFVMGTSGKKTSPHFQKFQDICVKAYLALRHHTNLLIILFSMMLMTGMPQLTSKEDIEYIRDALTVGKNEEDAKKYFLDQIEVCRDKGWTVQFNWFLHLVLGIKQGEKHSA
PI3K δ, sequence (O00329 whole entry): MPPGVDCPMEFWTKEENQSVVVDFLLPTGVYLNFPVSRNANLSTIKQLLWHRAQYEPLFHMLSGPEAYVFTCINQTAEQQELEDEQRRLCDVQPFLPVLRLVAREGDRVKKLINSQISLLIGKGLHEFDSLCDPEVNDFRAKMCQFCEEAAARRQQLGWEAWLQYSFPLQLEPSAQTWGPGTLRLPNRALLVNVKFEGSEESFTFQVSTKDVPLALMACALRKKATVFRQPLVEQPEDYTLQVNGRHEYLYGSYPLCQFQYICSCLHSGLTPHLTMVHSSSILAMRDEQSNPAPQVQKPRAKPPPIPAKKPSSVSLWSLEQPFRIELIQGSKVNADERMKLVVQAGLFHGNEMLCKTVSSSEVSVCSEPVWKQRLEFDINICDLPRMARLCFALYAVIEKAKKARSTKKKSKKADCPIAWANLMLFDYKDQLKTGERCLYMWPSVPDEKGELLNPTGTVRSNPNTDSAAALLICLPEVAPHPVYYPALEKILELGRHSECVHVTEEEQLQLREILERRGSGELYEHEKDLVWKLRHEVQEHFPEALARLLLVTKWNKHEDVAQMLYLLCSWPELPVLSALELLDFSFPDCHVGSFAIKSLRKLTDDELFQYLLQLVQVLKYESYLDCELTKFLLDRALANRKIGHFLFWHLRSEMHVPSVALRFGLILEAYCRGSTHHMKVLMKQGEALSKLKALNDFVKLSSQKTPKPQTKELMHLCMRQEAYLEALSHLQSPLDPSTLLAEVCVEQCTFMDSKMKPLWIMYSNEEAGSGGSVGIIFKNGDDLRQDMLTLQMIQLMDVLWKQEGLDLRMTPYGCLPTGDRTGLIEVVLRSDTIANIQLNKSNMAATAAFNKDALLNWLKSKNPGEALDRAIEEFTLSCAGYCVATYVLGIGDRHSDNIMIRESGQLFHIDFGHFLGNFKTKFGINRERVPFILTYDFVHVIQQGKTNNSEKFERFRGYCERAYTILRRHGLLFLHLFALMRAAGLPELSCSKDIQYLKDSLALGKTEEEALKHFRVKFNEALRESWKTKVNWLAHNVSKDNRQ
PI3K δ, sequence (P27986 whole entry partner): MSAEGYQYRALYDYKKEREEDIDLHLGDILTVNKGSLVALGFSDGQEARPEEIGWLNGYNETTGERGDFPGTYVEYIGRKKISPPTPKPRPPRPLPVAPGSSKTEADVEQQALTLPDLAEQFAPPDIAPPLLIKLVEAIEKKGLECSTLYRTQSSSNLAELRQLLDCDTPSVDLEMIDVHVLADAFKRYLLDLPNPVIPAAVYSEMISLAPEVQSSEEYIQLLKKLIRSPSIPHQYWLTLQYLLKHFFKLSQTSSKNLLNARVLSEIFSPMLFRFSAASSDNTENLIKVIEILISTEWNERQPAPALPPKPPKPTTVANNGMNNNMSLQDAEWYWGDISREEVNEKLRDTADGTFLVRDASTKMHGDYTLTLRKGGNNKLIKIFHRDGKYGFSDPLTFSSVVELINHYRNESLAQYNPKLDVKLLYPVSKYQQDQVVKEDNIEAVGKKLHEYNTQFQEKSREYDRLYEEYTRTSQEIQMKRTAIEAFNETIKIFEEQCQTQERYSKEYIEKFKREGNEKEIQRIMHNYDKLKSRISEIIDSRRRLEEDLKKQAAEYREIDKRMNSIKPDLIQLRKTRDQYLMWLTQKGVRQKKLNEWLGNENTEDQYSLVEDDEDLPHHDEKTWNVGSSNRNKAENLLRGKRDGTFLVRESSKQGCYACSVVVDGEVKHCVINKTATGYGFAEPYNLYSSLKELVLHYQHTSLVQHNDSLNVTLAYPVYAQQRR
PI3K β, sequence (P42338 whole entry): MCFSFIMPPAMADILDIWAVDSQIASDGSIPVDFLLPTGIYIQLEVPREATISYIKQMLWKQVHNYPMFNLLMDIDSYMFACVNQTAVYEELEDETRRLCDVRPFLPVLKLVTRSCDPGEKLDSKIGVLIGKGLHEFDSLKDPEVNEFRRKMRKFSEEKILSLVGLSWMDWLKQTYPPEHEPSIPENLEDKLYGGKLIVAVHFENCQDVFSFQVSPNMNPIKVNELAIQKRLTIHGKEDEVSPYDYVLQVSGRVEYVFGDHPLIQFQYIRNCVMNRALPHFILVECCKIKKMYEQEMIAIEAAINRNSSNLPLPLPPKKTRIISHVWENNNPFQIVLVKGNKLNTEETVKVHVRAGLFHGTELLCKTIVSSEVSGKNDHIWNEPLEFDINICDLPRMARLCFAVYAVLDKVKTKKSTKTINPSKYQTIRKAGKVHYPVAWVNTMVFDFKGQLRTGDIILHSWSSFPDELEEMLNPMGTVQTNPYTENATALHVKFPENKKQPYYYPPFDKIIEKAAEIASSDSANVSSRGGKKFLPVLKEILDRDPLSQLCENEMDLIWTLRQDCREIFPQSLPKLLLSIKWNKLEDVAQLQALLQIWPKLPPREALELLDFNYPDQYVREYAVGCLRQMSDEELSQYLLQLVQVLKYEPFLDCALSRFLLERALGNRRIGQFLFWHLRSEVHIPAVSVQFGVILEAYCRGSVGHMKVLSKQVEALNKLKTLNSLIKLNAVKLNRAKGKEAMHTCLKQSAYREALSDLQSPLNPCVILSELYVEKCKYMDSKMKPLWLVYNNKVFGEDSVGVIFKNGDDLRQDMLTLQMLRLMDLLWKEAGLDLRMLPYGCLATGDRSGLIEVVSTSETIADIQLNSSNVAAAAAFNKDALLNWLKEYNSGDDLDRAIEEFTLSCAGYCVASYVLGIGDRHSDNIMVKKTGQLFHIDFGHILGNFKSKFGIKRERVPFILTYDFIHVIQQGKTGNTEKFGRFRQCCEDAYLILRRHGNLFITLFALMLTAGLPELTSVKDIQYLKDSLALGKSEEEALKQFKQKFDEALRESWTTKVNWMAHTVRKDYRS
PI3K β, sequence (P27986 whole entry partner): as the sequence (P27986 whole entry partner) above
PI3K α, sequence (P42336 whole entry): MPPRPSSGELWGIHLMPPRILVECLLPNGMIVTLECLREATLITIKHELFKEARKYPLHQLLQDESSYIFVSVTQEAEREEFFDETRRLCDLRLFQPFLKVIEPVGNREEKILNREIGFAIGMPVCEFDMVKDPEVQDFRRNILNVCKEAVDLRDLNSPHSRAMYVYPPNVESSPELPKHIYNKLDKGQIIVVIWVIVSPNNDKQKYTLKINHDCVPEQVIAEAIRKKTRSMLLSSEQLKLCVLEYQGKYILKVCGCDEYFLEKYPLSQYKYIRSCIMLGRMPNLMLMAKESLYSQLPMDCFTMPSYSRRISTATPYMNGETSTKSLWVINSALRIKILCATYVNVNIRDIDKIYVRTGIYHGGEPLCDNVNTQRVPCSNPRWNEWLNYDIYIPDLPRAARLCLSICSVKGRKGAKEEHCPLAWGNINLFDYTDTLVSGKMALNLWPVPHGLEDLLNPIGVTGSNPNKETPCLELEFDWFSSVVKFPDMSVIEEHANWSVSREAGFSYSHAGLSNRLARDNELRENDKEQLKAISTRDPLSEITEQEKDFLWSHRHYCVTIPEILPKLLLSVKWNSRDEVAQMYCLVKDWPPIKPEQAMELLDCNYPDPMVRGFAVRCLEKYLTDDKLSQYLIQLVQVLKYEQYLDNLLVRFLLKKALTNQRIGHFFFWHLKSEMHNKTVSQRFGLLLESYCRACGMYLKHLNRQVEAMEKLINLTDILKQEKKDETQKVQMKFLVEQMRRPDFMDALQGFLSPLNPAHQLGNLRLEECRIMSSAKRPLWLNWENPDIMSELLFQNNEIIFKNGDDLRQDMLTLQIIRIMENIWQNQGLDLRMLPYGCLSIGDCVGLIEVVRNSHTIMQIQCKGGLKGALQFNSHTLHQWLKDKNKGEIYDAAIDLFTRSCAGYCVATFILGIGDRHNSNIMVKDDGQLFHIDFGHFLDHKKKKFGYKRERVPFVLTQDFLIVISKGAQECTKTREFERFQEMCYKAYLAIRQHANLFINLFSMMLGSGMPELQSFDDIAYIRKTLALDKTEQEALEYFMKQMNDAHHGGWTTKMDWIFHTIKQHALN
PI3K α, sequence (P27986 whole entry partner): as the sequence (P27986 whole entry partner) above

Row | IC50 (PI3K δ) | IC50 (PI3K β; [1]) | IC50 (PI3K γ) | IC50 (PI3K α) | IC50 (MDA-MB-361) | Compound | IC50 (PI3K β)
1 | > 10 µM | > 10 µM | > 10 µM |  |  | Nc1nc2cc(-c3ccc4ncc(N5CC(N6C7CCC6COC7)C5)nc4n3)ccc2o1 [Compound 51] | 
2 | > 10 µM | > 10 µM | > 10 µM | < 0.1 µM |  | CCN1CCN(C2CN(c3cnc4ccc(-c5ccc6nc(N)[nH]c6c5)nc4c3)C2)CC1 [Compound 87] | 
3 | > 10 µM |  | < 0.1 µM | < 0.1 µM |  | Nc1nc2cc(-c3ccc4ncc(N5C6CCC5COC6)cc4n3)ccc2o1 [Compound 23] | 
4 | > 10 µM | > 10 µM | > 10 µM | < 0.1 µM |  | C[C@@H]1CN(C2CN(c3cnc4ccc(-c5ccc6nc(N)[nH]c6c5)nc4c3)C2)CCN1C [Compound 86] | 
5 | > 10 µM | > 10 µM | > 10 µM | < 0.1 µM |  | CN1CCN(C2CN(c3cnc4ccc(-c5ccc6nc(N)[nH]c6c5)nc4c3)C2)CC1 [Compound 88] | 
6 | > 10 µM | > 10 µM |  | < 1 µM |  | Nc1nc2cc(-c3ccc4ncc(N5CC(N6CC7CCC(C6)O7)C5)nc4n3)ccc2o1 [Compound 20] | 
7 | > 10 µM | > 10 µM | < 1 µM | < 0.1 µM | < 1 µM | Nc1nc2cc(-c3ccc4ncc(N5CC6CCC(C5)O6)nc4n3)ccc2o1 [Compound 28] | 
8 | < 1 µM | < 1 µM | < 1 µM | < 0.1 µM | < 10 µM | CN1CC2CN(c3cnc4ccc(-c5ccc6oc(N)nc6c5)nc4c3)CC2C1 (stereo not drawn) [Compound 79] | 
9 | > 10 µM | > 10 µM | < 0.1 µM | < 0.1 µM | < 1 µM | Nc1nc2cc(-c3ccc4ncc(N5CC6CCC(C5)O6)cc4n3)ccc2o1 [Compound 59] | 
10 | > 10 µM | > 10 µM | > 10 µM |  |  | CN1CCN(C2CN(c3ccc4ncc(-c5ccc6oc(N)nc6c5)cc4n3)C2)CC1 [Compound 84] | 
11 | > 10 µM | > 10 µM | > 10 µM | < 0.1 µM |  | C[C@H]1CN(C2CN(c3cnc4ccc(-c5ccc6nc(N)[nH]c6c5)nc4c3)C2)CCN1C [Compound 89] | 
12 | > 10 µM | > 10 µM |  | < 1 µM |  | CC1CN(C2CN(c3cnc4ccc(-c5ccc6oc(N)nc6c5)nc4n3)C2)CCO1 (stereo not drawn) [Compound 18] | 
13 | < 0.1 µM | < 1 µM | < 1 µM | < 0.1 µM | < 0.1 µM | CN1CCN(C2CN(c3cnc4ccc(-c5ccc6oc(N)nc6c5)nc4c3)C2)CC1(C)C [Compound 83] | 
14 | > 10 µM | > 10 µM | > 10 µM | < 0.1 µM |  | CC(C)N1CCN(C2CN(c3cnc4ccc(-c5ccc6nc(N)[nH]c6c5)nc4c3)C2)CC1 [Compound 85] | 

Row | Compound | IC50 (PI3K δ) | IC50 (PI3K β; [1]) | IC50 (PI3K γ) | IC50 (PI3K α) | IC50 (MDA-MB-361) | IC50 (PI3K β)
15 | Nc1nc2cc(-c3ccc4ncc(N5CC(N6C7CCC6COC7)C5)cc4n3)ccc2o1 [Compound 67] |  | > 10 µM | < 1 µM | < 0.1 µM | < 10 µM | 
16 | Nc1nc2cc(-c3cnc4ccc(N5C6CCC5COC6)nc4c3)ccc2o1 [Compound 81] | > 10 µM |  |  |  |  | > 10 µM
17 | Nc1nc2cc(-c3ccc4ncc(N5C6CCC5COC6)nc4n3)ccc2o1 [Compound 19] | > 10 µM | > 10 µM | < 0.1 µM | < 0.1 µM | < 1 µM | 
